According to US4565699A, “Composition of matter and process” (The Upjohn Company, priority 1983, dated 1986):
Converted amounts (≈) assume the structure as drawn. Like-named read-outs stand apart in the source and are kept apart here.

Legend:
Gram-positive bacteria = experiment: Antimicrobial spectrum; format: cell-based
Source text: (§1) The assay is a standard tube dilution assay using BHI (Brain Heart Infusion medium-Difco). "UC" is a registered trademark of The Upjohn Company Culture Collection.

Solubilities = format: physicochemical
Streptococcus pyogenes = experiment: MIC, standard tube dilution assay, BHI medium; format: cell-based; conditions: UC152, UC 152, read-out: Minimum inhibitory concentration
Source text: as §1

Enterobacter cloacae = experiment: MIC, standard tube dilution assay, BHI medium; format: cell-based; conditions: UC9382, UC 9382, read-out: Minimum inhibitory concentration
Source text: as §1

Citrobacter freundii = experiment: MIC, standard tube dilution assay, BHI medium; format: cell-based; conditions: UC3507, UC 3507, read-out: Minimum inhibitory concentration
Source text: as §1

Pseudomonas aeruginosa = experiment: MIC, standard tube dilution assay, BHI medium; format: cell-based
Source text: as §1

Streptococcus faecalis = experiment: MIC, standard tube dilution assay, BHI medium; format: cell-based; conditions: Enterococcus faecalis, UC694; UC 694; read-out: Minimum inhibitory concentration
Source text: as §1

Haemophilus influenzae = experiment: MIC, standard tube dilution assay, BHI medium; format: cell-based
Source text: as §1

Klebsiella pneumoniae = experiment: MIC, standard tube dilution assay, BHI medium; format: cell-based; conditions: UC58, UC 58, read-out: Minimum inhibitory concentration
Source text: as §1

Serratia marcescens = experiment: MIC, standard tube dilution assay, BHI medium; format: cell-based; conditions: UC6888, UC 6888, read-out: Minimum inhibitory concentration
Source text: as §1

Staphylococcus aureus = experiment: MIC, standard tube dilution assay, BHI medium; format: cell-based
Source text: as §1

Escherichia coli = experiment: MIC, standard tube dilution assay, BHI medium; format: cell-based; conditions: UC311, UC 311, read-out: Minimum inhibitory concentration
Source text: as §1

Streptococcus pneumoniae = experiment: MIC, standard tube dilution assay, BHI medium; format: cell-based; conditions: UC41, UC 41, read-out: Minimum inhibitory concentration
Source text: as §1

In the case of `C=C/C(C)=C/C1(CC)SC(=O)C(CC(N)=O)=C1O` (stereo not shown) [U-68,204], the “Activity against various Gram-positive bacteria” value (Gram-positive bacteria) was “active”, the Solubility (Solubilities; most organic solvents) was “soluble in most organic solvents” and the Solubility (Solubilities; water) was “not soluble in water”. It also gave an MIC (Streptococcus pyogenes) greater than 600 µg/mL, an MIC (Enterobacter cloacae) greater than 600 µg/mL and an MIC (Citrobacter freundii) greater than 600 µg/mL. For the same molecule, the MIC (Pseudomonas aeruginosa; UC6432, UC 6432, read-out: Minimum inhibitory concentration) was greater than 600 µg/mL, the MIC (Pseudomonas aeruginosa; UC6676, UC 6676, read-out: Minimum inhibitory concentration) was greater than 600 µg/mL and the MIC (Pseudomonas aeruginosa; UC6954, UC 6954, read-out: Minimum inhibitory concentration) was greater than 600 µg/mL. The MIC (Pseudomonas aeruginosa; UC6955, UC 6955, read-out: Minimum inhibitory concentration) was 19 µg/mL (≈ 71.1 µM), the MIC (Pseudomonas aeruginosa; UC9027, UC 9027, read-out: Minimum inhibitory concentration) was 37.5 µg/mL (≈ 140 µM) and the MIC (Streptococcus faecalis) was greater than 600 µg/mL. For the same molecule, the MIC (Haemophilus influenzae; UC6482, UC 6482, read-out: Minimum inhibitory concentration) was 9.4 µg/mL (≈ 35.2 µM), the MIC (Haemophilus influenzae; UC6483, UC 6483, read-out: Minimum inhibitory concentration) was 19 µg/mL (≈ 71.1 µM) and the MIC (Klebsiella pneumoniae) was 300 µg/mL (≈ 1120 µM). It also gave an MIC (Serratia marcescens) greater than 600 µg/mL, an MIC (Staphylococcus aureus; UC76, UC 76, read-out: Minimum inhibitory concentration) of 75 µg/mL (≈ 281 µM) and an MIC (Staphylococcus aureus; UC3665, UC 3665, read-out: Minimum inhibitory concentration) of 75 µg/mL (≈ 281 µM). The MIC (Staphylococcus aureus; UC6675, UC 6675, read-out: Minimum inhibitory concentration) was 75 µg/mL (≈ 281 µM), the MIC (Staphylococcus aureus; UC6685, UC 6685, read-out: Minimum inhibitory concentration) was 600 µg/mL (≈ 2240 µM) and the MIC (Escherichia coli) was 600 µg/mL (≈ 2240 µM). For the same molecule, the MIC (Streptococcus pneumoniae) was greater than 600 µg/mL.
